Test results from PubChem BioAssay (NCI).
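Growth conditions: 96-well plates. Treatment: test compound, 48 hours, 5 concentrations. Analysis: linear interpolation between bracketing concentrations; unreached endpoints set to highest concentration. Abbreviation: GI50, concentration required for 50% inhibition of growth. TGI: concentration producing complete growth inhibition.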

Assays:
Experiment in all cases: NCI-60 cell line screen, 48 h; in the data active means GI50 below about 0.43 µM; inactive means the rest
[1] = test system: SF-268 CNS
[2] = test system: OVCAR-8 ovarian
[3] = test system: ACHN renal
[4] = test system: MCF7 breast
[5] = test system: NCI-H460 lung
[6] = test system: UACC-257 melanoma
[7] = test system: SK-OV-3 ovarian
[8] = test system: HCT-15 colon
[9] = test system: SK-MEL-2 melanoma
[10] = test system: T-47D breast
[11] = test system: A549 NSCLC
[12] = test system: MALME-3M melanoma
[13] = test system: CAKI-1 renal
[14] = test system: TK-10 renal
[15] = test system: M14 melanoma
[16] = test system: NCI-H226 lung
[17] = test system: COLO 205 colon
[18] = test system: RXF 393 renal
[19] = test system: OVCAR-4 ovarian
[20] = test system: MOLT-4 leukemia
[21] = test system: PC-3 prostate
[22] = test system: NCI-H522 lung
[23] = test system: A498 renal
[24] = test system: SNB-19 CNS
[25] = test system: RPMI-8226 leukemia
[26] = test system: SW-620 colon
[27] = test system: SNB-75 CNS
[28] = test system: HOP-62 NSCLC
[29] = test system: SK-MEL-28 melanoma
[30] = test system: U251 CNS
[31] = test system: HT29 colon
[32] = test system: K-562 leukemia
[33] = test system: SN12C renal
[34] = test system: SF-539 CNS
[35] = test system: DU-145 prostate
[36] = test system: LOX IMVI melanoma
[37] = test system: HCC-2998 colon
[38] = test system: SF-295 CNS
[39] = test system: IGROV1 ovarian
[40] = test system: EKVX NSCLC
[41] = test system: OVCAR-3 ovarian
[42] = test system: SK-MEL-5 melanoma
[43] = test system: OVCAR-5 ovarian
[44] = test system: 786-0 renal
[45] = test system: MDA-MB-435
[46] = test system: HS 578T breast
[47] = test system: KM12 colon
[48] = test system: BT-549 breast
[49] = test system: HOP-92 NSCLC
[50] = test system: HCT-116 colon
[51] = test system: NCI-H23 lung
[52] = test system: UO-31 renal
[53] = test system: CCRF-CEM leukemia
[54] = test system: MDA-MB-231 breast
[55] = test system: UACC-62 melanoma

COC(=O)c1ccc(C2SCC(=O)N2NC(=O)C(O)c2ccccc2)cc1 (stereo not given)
> 100 µM: TGI [1] | TGI [2] | TGI [3] | TGI [4] | TGI [5] | TGI [6] | TGI [7] | TGI [8] | TGI [9] | TGI [10] | TGI [11] | TGI [12] | TGI [13] | TGI [14] | TGI [15] | TGI [16] | TGI [17] | TGI [18] | TGI [19] | TGI [20] | TGI [21] | TGI [22] | TGI [23] | TGI [24] | TGI [25] | TGI [26] | TGI [27] | TGI [28] | TGI [29] | TGI [30] | TGI [31] | TGI [32] | TGI [33] | TGI [34] | TGI [35] | TGI [36] | TGI [37] | TGI [38] | TGI [39] | TGI [40] | TGI [41] | TGI [42] | TGI [43] | TGI [44] | TGI [45] | TGI [46] | TGI [47] | TGI [48] | TGI [49] | TGI [50] | TGI [51] | TGI [52] | TGI [53] | TGI [54] | TGI [55]
inactive: GI50 [1] > 100 µM | GI50 [2] > 100 µM | GI50 [3] > 100 µM | GI50 [4] > 100 µM | GI50 [5] > 100 µM | GI50 [6] > 100 µM | GI50 [7] > 100 µM | GI50 [8] > 100 µM | GI50 [9] > 100 µM | GI50 [10] > 100 µM | GI50 [11] > 100 µM | GI50 [12] > 100 µM | GI50 [13] > 100 µM | GI50 [14] > 100 µM | GI50 [15] > 100 µM | GI50 [16] > 100 µM | GI50 [17] > 100 µM | GI50 [18] > 100 µM | GI50 [19] > 100 µM | GI50 [20] > 100 µM | GI50 [21] > 100 µM | GI50 [22] > 100 µM | GI50 [23] > 100 µM | GI50 [24] > 100 µM | GI50 [25] > 100 µM | GI50 [26] > 100 µM | GI50 [27] > 100 µM | GI50 [28] > 100 µM | GI50 [29] > 100 µM | GI50 [30] > 100 µM | GI50 [31] > 100 µM | GI50 [32] > 100 µM | GI50 [33] > 100 µM | GI50 [34] > 100 µM | GI50 [35] > 100 µM | GI50 [36] > 100 µM | GI50 [37] > 100 µM | GI50 [38] > 100 µM | GI50 [39] > 100 µM | GI50 [40] > 100 µM | GI50 [41] > 100 µM | GI50 [42] > 100 µM | GI50 [43] > 100 µM | GI50 [44] > 100 µM | GI50 [45] > 100 µM | GI50 [46] > 100 µM | GI50 [47] > 100 µM | GI50 [48] > 100 µM | GI50 [49] > 100 µM | GI50 [50] > 100 µM | GI50 [51] > 100 µM | GI50 [52] > 100 µM | GI50 [53] > 100 µM | GI50 [54] > 100 µM | GI50 [55] > 100 µM
